As a reminder, the inhibition is the percentage by which the read-out fell short of the control. The term IC50 denotes the concentration that inhibits the measured activity by half. A lower IC50 goes with greater potency.

Bounds are passed on as bounds.

This passage reports inhibition and IC50 results from patent US20250368649A1, “TETRAHYDROPYRIDOPYRIMIDINE PAN-KRAS INHIBITORS” (Mirati Therapeutics, Inc., priority 2022, published 2025).

For one assay, the target named is KRas WT (Homo sapiens, UniProt P01116). The assay can be described thus: KRas binding assay (TR-FRET displacement), KRas WT. Conditions: single point, 10 nM compound. For orientation: In TR-FRET formats the signal depends on donor and acceptor labels being close together.
The target of a further assay is KRas G12A (Homo sapiens, UniProt P01116, G12A). The assay is classed as binding. Conditions: single point, 10 nM compound, read-out: Binding to KRas (% inhibition at 10 nM) G12A.
Another assay concerns the target KRas G12C (Homo sapiens, UniProt P01116, G12C). The assay is classed as binding. The following applies: single point, 10 nM compound, read-out: Binding to KRas (% inhibition at 10 nM) G12C.
The next assay has as its target KRas G12S (Homo sapiens, UniProt P01116, G12S). The format is binding. The following applies: single point, 10 nM compound, read-out: Binding to KRas (% inhibition at 10 nM) G12S.
The next assay addresses KRas G13D (Homo sapiens, UniProt P01116, G13D). The assay is classed as binding. The following applies: single point, 10 nM compound, read-out: Binding to KRas (% inhibition at 10 nM) G13D.
Another assay deals with KRas Q61H (Homo sapiens, UniProt P01116, Q61H). In words: KRas binding assay (TR-FRET displacement), KRas Q61H. Conditions: single point, 10 nM compound.
The next assay relates to MKN1 cells. In words: Inhibition of KRas-mediated phosphorylation of ERK (Cisbio HTRF pERK), MKN1 cells. The following applies: Homo sapiens, MKN-1, 3 hour compound incubation, Cisbio pERK HTRF. The assay is classed as cell-based. The method in brief: (§1)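 Cells were seeded on day 1 at 6,000 per well in RPMI containing 10% FBS before compound treatment and phospho-ERK detection.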

The next assay concerns PSN1 cells. The assay can be described thus: Inhibition of KRas-mediated phosphorylation of ERK (Cisbio HTRF pERK), PSN1 cells. The assay is classed as cell-based. The following applies: Homo sapiens, PSN1, 3 h, 3 hour compound incubation, Cisbio pERK HTRF. In outline: as §1
A further assay relates to ASPC1 cells. In words: Inhibition of KRas-mediated phosphorylation of ERK (Cisbio HTRF pERK), ASPC1 cells. The format is cell-based. Conditions: Homo sapiens, ASPC1, 3 h, AsPC-1 cells; 3 hr compound incubation; Cisbio pERK HTRF.
A further assay has as its system H727 cells. The assay can be described thus: Inhibition of KRas-mediated phosphorylation of ERK (Cisbio HTRF pERK), H727 cells. The assay is classed as cell-based. Conditions: Homo sapiens, NCI-H727, 3 h, 3 hr compound incubation, Cisbio pERK HTRF.
In a further assay the test system is A549 cells. The assay can be described thus: Inhibition of KRas-mediated phosphorylation of ERK (Cisbio HTRF pERK), A549 cells. The assay is classed as cell-based. Conditions: Homo sapiens, A549, 3 h, 3 hr compound incubation, Cisbio pERK HTRF.
For another assay, the system named is H460 cells. In words: Inhibition of KRas-mediated phosphorylation of ERK (Cisbio HTRF pERK), H460 cells. The assay is classed as cell-based. The following applies: Homo sapiens, NCI-H460, 3 h, 3 hr compound incubation, Cisbio pERK HTRF.
Another assay has as its system HCT116 cells. The assay can be described thus: Inhibition of KRas-mediated phosphorylation of ERK (Cisbio HTRF pERK), HCT116 cells. The assay is classed as cell-based. The following applies: Homo sapiens, HCT-116, 3 h, 3 hr compound incubation, Cisbio pERK HTRF.
For a further assay, the target named is KRas G12D (Homo sapiens, UniProt P01116, G12D). The assay can be described thus: biochemical. Conditions: Binding to KRas (IC50 nM) G12D, TR-FRET displacement, KRas G12D.
The target in the next assay is KRas G12R (Homo sapiens, UniProt P01116, G12R). The assay can be described thus: biochemical. The following applies: Binding to KRas (IC50 nM) G12R, TR-FRET displacement, KRas G12R.
The next assay addresses KRas G12V (Homo sapiens, UniProt P01116, G12V). In words: biochemical. Conditions: Binding to KRas (IC50 nM) G12V, TR-FRET displacement, KRas G12V.

Chain of KRas G13D (P01116 1-169 isoform P01116-2 G13D): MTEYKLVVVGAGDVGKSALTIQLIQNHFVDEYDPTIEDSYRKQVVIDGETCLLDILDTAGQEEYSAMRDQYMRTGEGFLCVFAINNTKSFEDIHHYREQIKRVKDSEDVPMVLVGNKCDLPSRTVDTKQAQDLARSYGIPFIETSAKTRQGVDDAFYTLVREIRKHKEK
Chain of KRas Q61H (P01116 1-169 isoform P01116-2 Q61H): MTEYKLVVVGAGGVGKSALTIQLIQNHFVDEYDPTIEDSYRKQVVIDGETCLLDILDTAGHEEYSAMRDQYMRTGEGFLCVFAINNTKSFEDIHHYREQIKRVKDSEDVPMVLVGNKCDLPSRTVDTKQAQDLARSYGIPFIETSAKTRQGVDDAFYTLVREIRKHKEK
Chain of KRas G12S (P01116 1-169 isoform P01116-2 G12S): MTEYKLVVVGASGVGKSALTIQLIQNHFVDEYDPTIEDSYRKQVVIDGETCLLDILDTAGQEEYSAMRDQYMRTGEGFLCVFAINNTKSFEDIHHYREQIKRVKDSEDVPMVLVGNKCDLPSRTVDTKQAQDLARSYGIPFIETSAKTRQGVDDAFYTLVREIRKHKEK
Chain of KRas WT (P01116 1-169 isoform P01116-2): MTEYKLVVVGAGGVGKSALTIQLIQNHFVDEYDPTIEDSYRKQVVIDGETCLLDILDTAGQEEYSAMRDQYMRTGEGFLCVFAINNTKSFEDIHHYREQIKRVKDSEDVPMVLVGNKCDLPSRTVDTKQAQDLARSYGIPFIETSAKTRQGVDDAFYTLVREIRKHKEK
Chain of KRas G12D (P01116 1-169 isoform P01116-2 G12D): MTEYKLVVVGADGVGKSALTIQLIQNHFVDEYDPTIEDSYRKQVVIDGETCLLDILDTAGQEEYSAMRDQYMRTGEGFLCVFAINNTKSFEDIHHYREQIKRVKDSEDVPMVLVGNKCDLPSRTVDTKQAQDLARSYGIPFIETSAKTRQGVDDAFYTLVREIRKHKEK
Chain of KRas G12A (P01116 1-169 isoform P01116-2 G12A): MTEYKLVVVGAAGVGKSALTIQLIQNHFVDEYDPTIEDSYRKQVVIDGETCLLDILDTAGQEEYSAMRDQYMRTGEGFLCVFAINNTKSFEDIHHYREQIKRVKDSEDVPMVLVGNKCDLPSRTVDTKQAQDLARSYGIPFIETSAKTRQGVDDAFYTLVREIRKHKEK
Chain of KRas G12C (P01116 1-169 isoform P01116-2 G12C): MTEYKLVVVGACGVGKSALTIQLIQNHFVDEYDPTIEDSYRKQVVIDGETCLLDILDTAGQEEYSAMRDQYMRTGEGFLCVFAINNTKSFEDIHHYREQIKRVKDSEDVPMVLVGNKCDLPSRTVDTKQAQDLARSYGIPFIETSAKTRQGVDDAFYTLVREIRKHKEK
Chain of KRas G12V (P01116 1-169 isoform P01116-2 G12V): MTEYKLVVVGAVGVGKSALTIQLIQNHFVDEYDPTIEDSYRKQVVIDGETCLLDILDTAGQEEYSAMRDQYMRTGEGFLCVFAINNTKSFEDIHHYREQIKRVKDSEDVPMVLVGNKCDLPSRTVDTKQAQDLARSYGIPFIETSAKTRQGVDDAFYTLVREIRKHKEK
Chain of KRas G12R (P01116 1-169 isoform P01116-2 G12R): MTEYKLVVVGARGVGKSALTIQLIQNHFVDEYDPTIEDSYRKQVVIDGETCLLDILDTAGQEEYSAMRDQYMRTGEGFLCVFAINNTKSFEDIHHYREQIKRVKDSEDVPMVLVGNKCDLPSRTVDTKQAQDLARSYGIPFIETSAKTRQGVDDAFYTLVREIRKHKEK

As to `CCc1c(F)ccc2cc(O)cc(N3CCc4c(nc(OC[C@@]56CCCN5C[C@H](F)C6)nc4N4CCCn5nc(NC)c(F)c5C4)C3)c12` [Example 406, 5-ethyl-6-fluoro-4-(4-(3-fluoro-2-(methylamino)-7,8-dihydro-4H-pyrazolo[1,5-a][1,4]diazepin-5(6H)-yl)-2-(((2R,7aS)-2-fluorohexahydro-1H-pyrrolizin-7a-yl)methoxy)-5,6-dihydropyrido[3,4-d]pyrimidin-7(8H)-yl)naphthalen-2-ol], the inhibition at 0.01 µM is 68% at KRas WT; 73% at KRas G12A; 87% at KRas G12C; 82% on KRas G12S; 70% at KRas G13D; 66% on KRas Q61H. In addition, the IC50 in the assay on MKN1 cells was 24.6 nM; in the assay with PSN1 cells, greater than 10000 nM; in the assay on ASPC1 cells, 59 nM; with H727 cells it was 100 nM; with A549 cells, 110 nM; in the assay with H460 cells, 143 nM. Besides, the IC50 was 331 nM in the assay with HCT116 cells, less than 2 nM at KRas G12D, less than 2 nM on KRas G12R and 3 nM on KRas G12V.
In the case of `CCc1c(F)ccc2cc(O)cc(N3CCc4c(nc(OC[C@@]56CCCN5C[C@H](F)C6)nc4N4CCCn5nc(NC(C)C)cc5C4)C3)c12` [Example 407, 5-ethyl-6-fluoro-4-(2-(((2R,7aS)-2-fluorohexahydro-1H-pyrrolizin-7a-yl)methoxy)-4-(2-(isopropylamino)-7,8-dihydro-4H-pyrazolo[1,5-a][1,4]diazepin-5(6H)-yl)-5,6-dihydropyrido[3,4-d]pyrimidin-7(8H)-yl)naphthalen-2-ol], the inhibition at 0.01 µM on KRas WT was found to be 56%; at KRas G12A, 61%; at KRas G12C, 78%; on KRas G12S, 71%; at KRas G13D, 56%; at KRas Q61H, 56%. For the same molecule, the IC50 was 32.9 nM in the assay on MKN1 cells; greater than 10000 nM in the assay with PSN1 cells; 97 nM in the assay on ASPC1 cells; 86 nM in the assay with H727 cells; 124 nM with A549 cells; 151 nM in the assay with H460 cells. For the same molecule, the IC50 in the assay on HCT116 cells worked out at 593 nM; on KRas G12D it was 4 nM; on KRas G12R, 2 nM; on KRas G12V it was 4 nM.
As to `CCc1c(F)ccc2cc(O)cc(N3CCc4c(nc(OC[C@@]56CCCN5C[C@H](F)C6)nc4N4CCCn5nc6c(c5C4)CCNC6=O)C3)c12` [Example 408, 2-(7-(8-ethyl-7-fluoro-3-hydroxynaphthalen-1-yl)-2-(((2R,7aS)-2-fluorohexahydro-1H-pyrrolizin-7a-yl)methoxy)-5,6,7,8-tetrahydropyrido[3,4-d]pyrimidin-4-yl)-2,3,4,5,10,11-hexahydro-1H-pyrido[3′,4′:3,4]pyrazolo[1,5-a][1,4]diazepin-8(9H)-one], the inhibition at 0.01 µM on KRas WT was determined as 98%; on KRas G12A, 98%; at KRas G12C, 99%; on KRas G12S it was 100%; at KRas G13D it was 97%; on KRas Q61H, 97%. The IC50 in the assay on MKN1 cells turned out to be 21.7 nM; in the assay with PSN1 cells, 5510 nM; with ASPC1 cells, 90 nM; in the assay with H727 cells, 166 nM; in the assay with A549 cells, 363 nM; with H460 cells, 594 nM. The IC50 with HCT116 cells is 1040 nM; at KRas G12D, less than 2 nM; at KRas G12R, less than 2 nM; at KRas G12V, less than 2 nM.
In the case of `CCc1c(F)ccc2cc(O)cc(N3CCc4c(nc(OC[C@@]56CCCN5C[C@H](F)C6)nc4N4CCCn5nc6c(c5C4)CCCN(C)C6=O)C3)c12` [Example 409, 2-(7-(8-ethyl-7-fluoro-3-hydroxynaphthalen-1-yl)-2-(((2R,7aS)-2-fluorohexahydro-1H-pyrrolizin-7a-yl)methoxy)-5,6,7,8-tetrahydropyrido[3,4-d]pyrimidin-4-yl)-9-methyl-2,3,4,5,9,10,11,12-octahydroazepino[3′,4′:3,4]pyrazolo[1,5-a][1,4]diazepin-8(1H)-one], the inhibition at 0.01 µM on KRas WT, at KRas G12A, at KRas G12C, on KRas G12S, on KRas G13D and at KRas Q61H was 100% in each case. For the same molecule, the IC50 with MKN1 cells worked out at 3.1 nM; in the assay on PSN1 cells, 1220 nM; in the assay on ASPC1 cells it was 8 nM; in the assay on H727 cells it was 7 nM; in the assay on A549 cells it was 22 nM; in the assay with H460 cells, 57 nM. Moreover, the IC50 is 212 nM in the assay on HCT116 cells, less than 2 nM on KRas G12D, less than 2 nM at KRas G12R and less than 2 nM on KRas G12V.
`CCc1c(F)ccc2cc(O)cc(N3CCc4c(nc(OC[C@@]56CCCN5C[C@H](F)C6)nc4N4CCCn5nc(C(=O)OC)cc5C4)C3)c12` [Example 411, methyl 5-(7-(8-ethyl-7-fluoro-3-hydroxynaphthalen-1-yl)-2-(((2R,7aS)-2-fluorohexahydro-1H-pyrrolizin-7a-yl)methoxy)-5,6,7,8-tetrahydropyrido[3,4-d]pyrimidin-4-yl)-5,6,7,8-tetrahydro-4H-pyrazolo[1,5-a][1,4]diazepine-2-carboxylate]: the inhibition at 0.01 µM is 73% at KRas WT; 74% on KRas G12A; 90% at KRas G12C; 88% on KRas G12S; 75% at KRas G13D; 71% on KRas Q61H. The IC50 in the assay on MKN1 cells was determined as 30.1 nM; with PSN1 cells, 6540 nM; in the assay with ASPC1 cells, 31 nM; with H727 cells, 54 nM; in the assay on A549 cells it was 111 nM; in the assay with H460 cells, 260 nM. In addition, the IC50 is 423 nM in the assay with HCT116 cells, less than 2 nM at KRas G12D, less than 2 nM on KRas G12R and less than 2 nM on KRas G12V.
Turning to `CCNc1cc2n(n1)CCCN(c1nc(OC[C@@]34CCCN3C[C@H](F)C4)nc3c1CCN(c1cc(O)cc4ccc(F)c(CC)c14)C3)C2` [Example 412, 5-ethyl-4-(4-(2-(ethylamino)-7,8-dihydro-4H-pyrazolo[1,5-a][1,4]diazepin-5(6H)-yl)-2-(((2R,7aS)-2-fluorohexahydro-1H-pyrrolizin-7a-yl)methoxy)-5,6-dihydropyrido[3,4-d]pyrimidin-7(8H)-yl)-6-fluoronaphthalen-2-ol], the inhibition at 0.01 µM was 62% at KRas WT; 62% on KRas G12A; 83% at KRas G12C; 76% on KRas G12S; 60% on KRas G13D; 61% on KRas Q61H. Also, the IC50 in the assay on MKN1 cells was 1.7 nM; in the assay on PSN1 cells, greater than 10000 nM; in the assay with ASPC1 cells, 96 nM; in the assay on H727 cells it was 72 nM; with A549 cells, 213 nM; in the assay with H460 cells, 207 nM. Also, the IC50 in the assay with HCT116 cells was 614 nM; at KRas G12D it was less than 2 nM; at KRas G12R, less than 2 nM; at KRas G12V, less than 2 nM.
